Legend:
[1] = target: Human α2δ-1 Subunit of Cav2.2 Calcium Channel (Homo sapiens, UniProt P54289); experiment: Human α2δ-1 subunit of Cav2.2 calcium channel assay, [3H]-Gabapentin binding; conditions: human α2δ-1 enriched membranes, 15 nM [3H]-Gabapentin
Protocol: Human α2δ-1 Subunit of Cav2.2 Calcium Channel Assay
Human α2δ-1 enriched membranes (2.5 μg) were incubated with 15 nM of radiolabeled [3H]-Gabapentin in assay buffer containing Hepes-KOH 10 mM, pH 7.4. NSB (non specific binding) was measured by adding 10 μM pregabalin. The binding of the test compound was measured at five different concentrations. After 60 min incubation at 27° C., binding reaction was terminated by filtering through Multiscreen GF/C (Millipore) presoaked in 0.5% polyethyleneimine in Vacuum Manifold Station, followed by 3 washes with ice-cold filtration buffer containing 50 mM Tris-HCl, pH 7.4. Filter plates were dried at 60° C. for 1 hour and 30 μl of scintillation cocktail were added to each well before radioactivity reading. Readings were performed in a Trilux 1450 Microbeta radioactive counter (Perkin Elmer).

[2] = target: Human norepinephrine transporter (NET) (Homo sapiens, UniProt P23975); experiment: Binding assay to human norepinephrine transporter (NET), [3H]-Nisoxetin; conditions: human NET enriched membranes, 5 nM [3H]-Nisoxetin
Protocol: Binding Assay to Human Norepinephrine Transporter (NET).
Human norepinephrine transporter (NET) enriched membranes (5 μg) were incubated with 5 nM of radiolabeled [3H]-Nisoxetin in assay buffer containing 50 mM Tris-HCl, 120 mM NaCl, 5 mM KCl, pH 7.4. NSB (non specific binding) was measured by adding 10 μM of desipramine. The binding of the test compound was measured at five different concentrations. After 60 min incubation at 4° C., binding reaction was terminated by filtering through Multiscreen GF/C (Millipore) presoaked in 0.5% polyethyleneimine in Vacuum Manifold Station, followed by 3 washes with ice-cold filtration buffer containing 50 mM Tris-HCl, 0.9% NaCl, pH 7.4. Filter plates were dried at 60° C. for 1 hour and 30 μl of scintillation cocktail were added to each well before radioactivity reading. Readings were performed in a Trilux 1450 Microbeta radioactive counter (Perkin Elmer).

Sequence of Human norepinephrine transporter (NET) (P23975 whole entry): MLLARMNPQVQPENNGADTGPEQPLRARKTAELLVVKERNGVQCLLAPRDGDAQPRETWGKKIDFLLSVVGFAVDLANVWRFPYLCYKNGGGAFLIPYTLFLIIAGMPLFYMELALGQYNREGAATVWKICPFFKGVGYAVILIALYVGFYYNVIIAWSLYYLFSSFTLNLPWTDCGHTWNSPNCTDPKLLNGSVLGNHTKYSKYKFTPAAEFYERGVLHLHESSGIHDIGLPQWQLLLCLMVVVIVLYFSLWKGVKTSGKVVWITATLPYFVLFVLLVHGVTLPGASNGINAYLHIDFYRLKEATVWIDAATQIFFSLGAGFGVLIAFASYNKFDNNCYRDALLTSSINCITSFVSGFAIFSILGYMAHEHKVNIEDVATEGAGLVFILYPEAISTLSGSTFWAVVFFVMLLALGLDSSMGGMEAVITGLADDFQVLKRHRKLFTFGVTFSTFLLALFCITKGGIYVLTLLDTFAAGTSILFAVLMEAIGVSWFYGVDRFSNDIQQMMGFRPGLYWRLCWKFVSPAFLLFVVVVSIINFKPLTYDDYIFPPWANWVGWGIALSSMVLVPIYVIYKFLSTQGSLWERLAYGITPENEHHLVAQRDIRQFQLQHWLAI
Sequence of Human α2δ-1 Subunit of Cav2.2 Calcium Channel (P54289 25-1103): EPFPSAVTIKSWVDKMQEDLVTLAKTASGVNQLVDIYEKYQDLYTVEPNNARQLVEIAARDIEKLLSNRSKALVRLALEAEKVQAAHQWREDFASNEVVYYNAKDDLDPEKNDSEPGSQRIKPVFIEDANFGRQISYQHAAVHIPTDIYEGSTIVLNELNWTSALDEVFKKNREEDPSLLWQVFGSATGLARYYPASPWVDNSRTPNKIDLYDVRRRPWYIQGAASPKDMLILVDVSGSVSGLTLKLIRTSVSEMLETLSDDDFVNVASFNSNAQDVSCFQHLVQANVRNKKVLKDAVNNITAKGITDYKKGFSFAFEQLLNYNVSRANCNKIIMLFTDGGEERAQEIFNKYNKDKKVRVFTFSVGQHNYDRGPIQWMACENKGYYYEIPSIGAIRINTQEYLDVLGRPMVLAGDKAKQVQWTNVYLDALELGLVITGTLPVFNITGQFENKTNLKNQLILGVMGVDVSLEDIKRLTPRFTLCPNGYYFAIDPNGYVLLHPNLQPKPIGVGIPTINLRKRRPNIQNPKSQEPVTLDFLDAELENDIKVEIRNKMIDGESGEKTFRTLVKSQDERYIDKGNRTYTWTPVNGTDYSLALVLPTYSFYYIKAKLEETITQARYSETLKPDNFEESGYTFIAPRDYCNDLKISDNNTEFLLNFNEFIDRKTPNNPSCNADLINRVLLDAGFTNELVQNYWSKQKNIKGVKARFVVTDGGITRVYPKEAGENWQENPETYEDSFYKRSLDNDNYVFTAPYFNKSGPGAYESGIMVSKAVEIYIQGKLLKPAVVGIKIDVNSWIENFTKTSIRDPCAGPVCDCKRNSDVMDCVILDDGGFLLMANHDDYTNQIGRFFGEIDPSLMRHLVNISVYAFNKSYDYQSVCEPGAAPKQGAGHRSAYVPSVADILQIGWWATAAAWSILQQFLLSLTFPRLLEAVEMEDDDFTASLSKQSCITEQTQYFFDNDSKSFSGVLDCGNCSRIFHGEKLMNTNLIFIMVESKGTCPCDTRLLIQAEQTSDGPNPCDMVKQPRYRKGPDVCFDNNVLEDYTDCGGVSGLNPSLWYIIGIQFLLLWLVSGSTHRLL

Row | Compound | Ki [1] | Ki [2]
1 | CNCCC(Oc1cccc(-n2nc3c(N)nnc(C)c3c2C)c1)c1ccccc1 (centres unmarked) [Example 27, 3,4-dimethyl-2-(3-(3-(methylamino)-1-phenylpropoxy)phenyl)-2H-pyrazolo[3,4-d]pyridazin-7-amine] | 500 to 5000 nM | < 100 nM
2 | CNCCC(Oc1cccc(-n2nc3c(N(C)C)nnc(C)c3c2C)c1)c1ccc(C#N)cc1 (centres unmarked) [Example 7, 4-(1-(3-(7-(dimethylamino)-3,4-dimethyl-2H-pyrazolo[3,4-d]pyridazin-2-yl)phenoxy)-3-(methylamino)propyl)benzonitrile] | 500 to 5000 nM | 100 to 500 nM
3 | CNc1nnc(C)c2c(C)n(-c3cccc(OC(CCN)c4ccccc4)c3)nc12 (centres unmarked) [Example 24, 2-(3-(3-amino-1-phenylpropoxy)phenyl)-N,3,4-trimethyl-2H-pyrazolo[3,4-d]pyridazin-7-amine] | 500 to 5000 nM | 500 to 1000 nM
4 | Cc1nnc(N(C)C)c2nn(-c3cccc(OCCC(N)c4ccccc4)c3)c(C)c12 (centres unmarked) [Example 14, 2-(3-(3-amino-3-phenylpropoxy)phenyl)-N,N,3,4-tetramethyl-2H-pyrazolo[3,4-d]pyridazin-7-amine] | 500 to 5000 nM | 100 to 500 nM
5 | Cc1nnc(N(C)C)c2nn(-c3cccc(OCC4CCNCC4)c3)c(C)c12 [Example 29, N,N,3,4-tetramethyl-2-(3-(piperidin-4-ylmethoxy)phenyl)-2H-pyrazolo[3,4-d]pyridazin-7-amine] | ≥ 5000 nM | ≥ 1000 nM
6 | Cc1nnc(N(C)C)c2nn(-c3cccc(OC4CNCc5ccccc54)c3)c(C)c12 (centres unmarked) [Example 16, N,N,3,4-tetramethyl-2-(3-((1,2,3,4-tetrahydroisoquinolin-4-yl)oxy)phenyl)-2H-pyrazolo[3,4-d]pyridazin-7-amine] | 500 to 5000 nM | ≥ 1000 nM

The remaining lines, values ahead:

Row | Ki [1] | Ki [2] | Compound
7 | 500 to 5000 nM | < 100 nM | CNCCC(Oc1cccc(-n2nc3c(N(C)CCCO)nnc(C)c3c2C)c1)c1ccccc1F (centres unmarked) [Example 32, 3-((2-(3-(1-(2-fluorophenyl)-3-(methylamino)propoxy)phenyl)-3,4-dimethyl-2H-pyrazolo[3,4-d]pyridazin-7-yl)(methyl)amino)propan-1-ol]
8 | 500 to 5000 nM | 100 to 500 nM | CNCC(Oc1cccc(-n2nc3c(N(C)C)nnc(C)c3c2C)c1)c1ccccc1F (centres unmarked) [Example 41, 2-(3-(1-(2-fluorophenyl)-2-(methylamino)ethoxy)phenyl)-N,N,3,4-tetramethyl-2H-pyrazolo[3,4-d]pyridazin-7-amine]
9 | 500 to 5000 nM | ≥ 1000 nM | Cc1nnc(N(C)C)c2nn(-c3cccc(OC(CCN)c4cccnc4)c3)c(C)c12 (centres unmarked) [Example 50, 2-(3-(3-amino-1-(pyridin-3-yl)propoxy)phenyl)-N,N,3,4-tetramethyl-2H-pyrazolo[3,4-d]pyridazin-7-amine]
10 | 500 to 5000 nM | 100 to 500 nM | CNCCC(Oc1cccc(-n2c(C)c3c(C)nnc(C)c3c2C)c1)c1cccc(F)c1 (centres unmarked) [Example 67, 3-(3-fluorophenyl)-N-methyl-3-(3-(1,4,5,7-tetramethyl-6H-pyrrolo[3,4-d]pyridazin-6-yl)phenoxy)propan-1-amine]
11 | < 500 nM | 100 to 500 nM | CNCCC(Oc1cccc(-n2nc3c(N(C)C)nnc(C)c3c2C)c1)c1cccnc1 (centres unmarked) [Example 42, N,N,3,4-tetramethyl-2-(3-(3-(methylamino)-1-(pyridin-3-yl)propoxy)phenyl)-2H-pyrazolo[3,4-d]pyridazin-7-amine]
12 | 500 to 5000 nM | 500 to 1000 nM | CNCC[C@@H](Oc1cccc(-n2nc3c(N(C)C)nnc(C)c3c2C)c1)c1cccnc1 [Example 65, (R)-N,N,3,4-tetramethyl-2-(3-(3-(methylamino)-1-(pyridin-3-yl)propoxy)phenyl)-2H-pyrazolo[3,4-d]pyridazin-7-amine]
13 | 500 to 5000 nM | ≥ 1000 nM | CNCC(Oc1cccc(-n2nc3c(N(C)C)nnc(C)c3c2C)c1)c1cccnc1 (centres unmarked) [Example 45, N,N,3,4-tetramethyl-2-(3-(2-(methylamino)-1-(pyridin-3-yl)ethoxy)phenyl)-2H-pyrazolo[3,4-d]pyridazin-7-amine]

From patent US20200190081A1, “META SUBSTITUTED PHENYLPYRAZOLO- AND PHENYLPYRROLO- PYRIDAZINE DERIVATIVES HAVING MULTIMODAL ACTIVITY AGAINST PAIN” (ESTEVE PHARMACEUTICALS, S.A., priority 2016, published 2020)
